Measurements: ChEMBL document CHEMBL5653595 (J Biol Chem, 2003)
The source made the active and inactive calls. No cut-off for these calls is given here.

How the values were obtained:
[1] = molecular target: T1, Tyrosine-protein kinase ITK/TSK (Homo sapiens) (UniProt Q08881); assay: Inhibition of recombinant human EMT at 100 uM
T1 sequence (whole entry): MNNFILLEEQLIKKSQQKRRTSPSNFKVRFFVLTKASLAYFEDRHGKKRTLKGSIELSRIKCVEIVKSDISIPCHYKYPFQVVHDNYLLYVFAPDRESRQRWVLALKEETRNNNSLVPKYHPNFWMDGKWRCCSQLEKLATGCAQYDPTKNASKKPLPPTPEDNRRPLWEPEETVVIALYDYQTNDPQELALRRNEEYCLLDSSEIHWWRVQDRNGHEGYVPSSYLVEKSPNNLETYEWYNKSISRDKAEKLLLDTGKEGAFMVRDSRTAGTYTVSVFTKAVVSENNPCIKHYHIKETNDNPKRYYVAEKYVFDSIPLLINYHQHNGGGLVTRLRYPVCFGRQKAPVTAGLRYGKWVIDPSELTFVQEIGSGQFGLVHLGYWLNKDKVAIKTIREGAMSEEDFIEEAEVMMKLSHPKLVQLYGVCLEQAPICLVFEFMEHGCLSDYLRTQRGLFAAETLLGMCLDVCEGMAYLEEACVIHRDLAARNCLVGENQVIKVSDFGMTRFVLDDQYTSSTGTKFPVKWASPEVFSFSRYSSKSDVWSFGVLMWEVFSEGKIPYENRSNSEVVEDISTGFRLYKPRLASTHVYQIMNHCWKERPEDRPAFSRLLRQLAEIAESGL

[2] = Half life in BALB/c mouse at 2 mg/kg, iv measured upto 8 hrs by LC-MS-MS analysis; format: ADME, organism-based; conditions: in vivo
[3] = molecular target: Receptor tyrosine-protein kinase erbB-2 (Homo sapiens) (UniProt P04626); assay: Inhibition of recombinant human Her2 at 100 uM
[4] = Total clearance in BALB/c mouse at 2 mg/kg, iv measured upto 8 hrs by LC-MS-MS analysis; format: ADME, organism-based; conditions: in vivo
[5] = system: THP-1; assay: Antiinflammatory activity against LPS-induced human THP-1 cells assessed as reduction in IL-1beta cytokine level preincubated for 1 hr followed by LPS-stimulation and measured after 6 hrs by enzyme immunoassay; format: functional, cell-based
[6] = Aqueous solubility of compound; format: physicochemical; conditions: buffer
[7] = molecular target: Mitogen-activated protein kinase 1 (Homo sapiens) (UniProt P28482); assay: Inhibition of recombinant human ERK2 at 100 uM
[8] = molecular target: T2, Inhibitor of nuclear factor kappa-B kinase subunit epsilon (Homo sapiens) (UniProt Q14164); assay: Inhibition of GST-tagged IKKE (unknown origin) expressed in High five cells using LDDRHDSGLDSMKDEEY as substrate incubated for 5 mins in presence of [gamma33P]ATP by liquid scintillation counter analysis
T2 sequence (whole entry): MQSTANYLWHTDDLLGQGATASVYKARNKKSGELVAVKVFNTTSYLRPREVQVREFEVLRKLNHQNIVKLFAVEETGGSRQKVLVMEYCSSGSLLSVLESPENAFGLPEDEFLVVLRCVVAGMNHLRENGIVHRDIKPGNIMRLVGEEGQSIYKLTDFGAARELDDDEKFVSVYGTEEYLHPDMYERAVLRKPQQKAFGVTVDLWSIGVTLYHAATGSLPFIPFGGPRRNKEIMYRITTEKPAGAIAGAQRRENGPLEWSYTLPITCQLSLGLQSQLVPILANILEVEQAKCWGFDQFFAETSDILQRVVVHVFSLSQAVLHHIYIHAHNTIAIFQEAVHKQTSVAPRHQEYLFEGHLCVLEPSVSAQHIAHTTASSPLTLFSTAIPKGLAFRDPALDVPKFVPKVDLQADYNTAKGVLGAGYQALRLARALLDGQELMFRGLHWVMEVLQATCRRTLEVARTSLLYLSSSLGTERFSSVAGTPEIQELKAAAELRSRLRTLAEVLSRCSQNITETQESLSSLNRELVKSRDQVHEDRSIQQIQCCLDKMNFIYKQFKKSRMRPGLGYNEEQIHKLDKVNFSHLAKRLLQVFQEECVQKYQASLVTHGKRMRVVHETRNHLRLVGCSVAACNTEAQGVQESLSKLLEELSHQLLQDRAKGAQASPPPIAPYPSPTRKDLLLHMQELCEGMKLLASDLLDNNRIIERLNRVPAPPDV

[9] = system: THP-1; assay: Antiinflammatory activity against LPS-induced human THP-1 cells assessed as reduction in TNFalpha cytokine level preincubated for 1 hr followed by LPS-stimulation and measured after 6 hrs by enzyme immunoassay; format: functional, cell-based
[10] = molecular target: Mitogen-activated protein kinase 14 (Homo sapiens) (UniProt Q16539); assay: Inhibition of recombinant human P38alpha at 100 uM
[11] = Cmax in BALB/c mouse at 10 mg/kg, po measured upto 8 hrs by LC-MS-MS analysis; format: ADME, organism-based; conditions: in vivo
[12] = system: Mus musculus; assay: Antiinflammatory activity against LPS-induced BALB/c mouse assessed as reduction in TNFalpha cytokine level at 10 mg/kg, po pretreated for 1 hr followed by LPS-stimulation and measured after 90mins by enzyme immunoassay; format: functional; design: scale not given: the % may be the effect or the level left; conditions: time 150 min, 2.5 h
[13] = Tmax in BALB/c mouse at 10 mg/kg, po measured upto 8 hrs by LC-MS-MS analysis; format: ADME, organism-based; conditions: in vivo
[14] = Volume of distribution at steady state in BALB/c mouse at 2 mg/kg, iv measured upto 8 hrs by LC-MS-MS analysis; format: ADME, organism-based; conditions: in vivo, read-out: Vdss
[15] = molecular target: T3, Tyrosine-protein kinase JAK3 (Homo sapiens) (UniProt P52333); assay: Inhibition of recombinant human JAK3 at 100 uM
T3 sequence (whole entry): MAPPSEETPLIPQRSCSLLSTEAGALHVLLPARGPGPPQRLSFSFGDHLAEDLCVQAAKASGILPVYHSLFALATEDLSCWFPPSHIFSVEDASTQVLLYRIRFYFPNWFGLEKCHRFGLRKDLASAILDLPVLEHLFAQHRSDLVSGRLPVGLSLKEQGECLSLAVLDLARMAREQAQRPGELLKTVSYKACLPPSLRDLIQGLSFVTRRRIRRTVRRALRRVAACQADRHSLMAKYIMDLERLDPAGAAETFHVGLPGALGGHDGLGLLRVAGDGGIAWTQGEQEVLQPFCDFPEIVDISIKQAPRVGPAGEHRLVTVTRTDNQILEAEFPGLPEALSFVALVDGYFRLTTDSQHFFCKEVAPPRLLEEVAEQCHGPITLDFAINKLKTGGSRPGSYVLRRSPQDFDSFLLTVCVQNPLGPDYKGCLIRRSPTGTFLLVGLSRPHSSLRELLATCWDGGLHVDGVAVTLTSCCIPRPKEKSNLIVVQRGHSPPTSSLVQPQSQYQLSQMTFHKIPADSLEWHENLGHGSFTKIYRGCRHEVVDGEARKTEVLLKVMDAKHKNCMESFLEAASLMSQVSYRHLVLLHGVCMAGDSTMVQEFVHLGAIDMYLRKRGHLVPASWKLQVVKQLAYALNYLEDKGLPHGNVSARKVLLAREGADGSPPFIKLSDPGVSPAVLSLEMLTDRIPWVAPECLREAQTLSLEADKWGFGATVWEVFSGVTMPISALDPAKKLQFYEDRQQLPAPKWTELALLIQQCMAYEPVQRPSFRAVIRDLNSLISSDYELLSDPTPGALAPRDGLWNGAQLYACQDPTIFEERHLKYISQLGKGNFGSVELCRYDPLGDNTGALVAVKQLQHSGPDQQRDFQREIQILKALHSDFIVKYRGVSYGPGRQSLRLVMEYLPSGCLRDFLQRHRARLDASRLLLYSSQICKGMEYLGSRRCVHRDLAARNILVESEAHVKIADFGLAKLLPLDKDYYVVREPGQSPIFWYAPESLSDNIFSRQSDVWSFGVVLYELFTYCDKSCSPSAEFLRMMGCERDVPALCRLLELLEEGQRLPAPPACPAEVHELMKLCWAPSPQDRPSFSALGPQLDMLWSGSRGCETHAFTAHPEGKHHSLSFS

[16] = organism: Homo sapiens; assay: Inhibition of recombinant human MAPK at 100 uM
[17] = system: THP-1; assay: Antiinflammatory activity against LPS-induced human THP-1 cells assessed as reduction in IL-8 cytokine level preincubated for 1 hr followed by LPS-stimulation and measured after 6 hrs by enzyme immunoassay; format: functional, cell-based
[18] = system: Mus musculus; assay: Antiinflammatory activity against LPS-induced po dosed BALB/c mouse assessed as reduction in TNFalpha cytokine level pretreated for 1 hr followed by LPS-stimulation and measured after 90mins by enzyme immunoassay; format: functional, organism-based; conditions: dose 1-100 mg/kg, time 150.0 min
[19] = system: THP-1; assay: Cytotoxicity against human THP-1 cells by trypan blue exclusion assay; format: toxicity, cell-based
[20] = Oral bioavailability in BALB/c mouse at 10 mg/kg measured upto 8 hrs by LC-MS-MS analysis; format: ADME, organism-based; conditions: in vivo
[21] = molecular target: Insulin-like growth factor 1 receptor (Homo sapiens) (UniProt P08069); assay: Inhibition of recombinant human IGF1R at 100 uM
[22] = system: THP-1; assay: Antiinflammatory activity against LPS-induced human THP-1 cells assessed as reduction in IL-6 cytokine level preincubated for 1 hr followed by LPS-stimulation and measured after 24 hrs by enzyme immunoassay; format: functional, cell-based
[23] = molecular target: Epidermal growth factor receptor (Homo sapiens) (UniProt P00533); assay: Inhibition of recombinant human Her1 at 100 uM
[24] = molecular target: T4, Protein kinase C zeta type (Homo sapiens) (UniProt Q05513); assay: Inhibition of recombinant human PKCzeta at 100 uM
T4 sequence (whole entry): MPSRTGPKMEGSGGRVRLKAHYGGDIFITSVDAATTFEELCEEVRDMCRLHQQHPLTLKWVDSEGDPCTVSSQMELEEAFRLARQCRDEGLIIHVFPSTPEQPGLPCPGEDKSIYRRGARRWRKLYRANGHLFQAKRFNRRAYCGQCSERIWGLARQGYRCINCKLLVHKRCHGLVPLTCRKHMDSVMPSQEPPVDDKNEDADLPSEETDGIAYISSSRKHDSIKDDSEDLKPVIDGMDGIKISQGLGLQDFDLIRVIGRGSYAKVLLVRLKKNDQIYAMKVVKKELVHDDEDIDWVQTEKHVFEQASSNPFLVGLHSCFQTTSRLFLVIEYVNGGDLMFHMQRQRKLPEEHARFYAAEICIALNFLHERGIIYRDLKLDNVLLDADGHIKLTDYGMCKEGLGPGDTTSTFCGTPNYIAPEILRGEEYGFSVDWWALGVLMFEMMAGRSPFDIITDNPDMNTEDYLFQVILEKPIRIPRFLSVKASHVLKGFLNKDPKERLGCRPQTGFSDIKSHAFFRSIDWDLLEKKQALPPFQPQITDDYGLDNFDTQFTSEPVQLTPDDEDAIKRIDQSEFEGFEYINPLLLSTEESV

[25] = molecular target: Tyrosine-protein kinase Lck (Homo sapiens) (UniProt P06239); assay: Inhibition of recombinant human LCK at 100 uM
[26] = molecular target: Signal transducer and activator of transcription 3 (Homo sapiens) (UniProt P40763); assay: Inhibition of EGF-stimulated STAT3 phosphorylation in human NCI-H292 cells at 100 uM pre incubated for 60 mins followed by […] stimulation for 5 mins by immunoblot analysis; format: cell-based; conditions: time 65.0 min
[27] = molecular target: Protein kinase C alpha type (Homo sapiens) (UniProt P17252); assay: Inhibition of recombinant human PKCalpha at 100 uM
[28] = molecular target: MAP kinase-activated protein kinase 2 (Homo sapiens) (UniProt P49137); assay: Inhibition of recombinant human MAPKAPK2 at 100 uM
[29] = molecular target: MAP kinase-activated protein kinase 2 (Homo sapiens) (UniProt P49137); assay: Inhibition of LPS-stimulated MAPKAPK2 activation in human THP-1 cells at 100 uM using [33P]ATP as substrate pre incubated for 60 mins followed by LPS-stimulation for 30 mins; format: cell-based; conditions: time 90.0 min
[30] = system: Mus musculus; assay: Antiinflammatory activity against LPS-induced BALB/c mouse assessed as reduction in TNFalpha cytokine level at 100 mg/kg, po pretreated for 1 hr followed by LPS-stimulation and measured after 90mins by enzyme immunoassay; format: functional; design: scale not given: the % may be the effect or the level left; conditions: time 150 min, 2.5 h

Sequence of MAP kinase-activated protein kinase 2 (Homo sapiens) (P49137 whole entry, looked up): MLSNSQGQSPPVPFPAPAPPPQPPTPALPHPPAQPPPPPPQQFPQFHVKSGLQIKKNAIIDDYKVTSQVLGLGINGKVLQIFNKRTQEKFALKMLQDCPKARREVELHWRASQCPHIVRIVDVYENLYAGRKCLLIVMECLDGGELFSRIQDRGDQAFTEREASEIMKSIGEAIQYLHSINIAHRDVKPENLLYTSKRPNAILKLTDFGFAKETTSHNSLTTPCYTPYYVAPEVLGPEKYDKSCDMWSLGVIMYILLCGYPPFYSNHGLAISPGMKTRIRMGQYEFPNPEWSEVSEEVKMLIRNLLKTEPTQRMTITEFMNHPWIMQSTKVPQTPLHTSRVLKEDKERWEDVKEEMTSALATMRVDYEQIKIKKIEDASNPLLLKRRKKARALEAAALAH
Sequence of Insulin-like growth factor 1 receptor (Homo sapiens) (P08069 31-736 limits assumed): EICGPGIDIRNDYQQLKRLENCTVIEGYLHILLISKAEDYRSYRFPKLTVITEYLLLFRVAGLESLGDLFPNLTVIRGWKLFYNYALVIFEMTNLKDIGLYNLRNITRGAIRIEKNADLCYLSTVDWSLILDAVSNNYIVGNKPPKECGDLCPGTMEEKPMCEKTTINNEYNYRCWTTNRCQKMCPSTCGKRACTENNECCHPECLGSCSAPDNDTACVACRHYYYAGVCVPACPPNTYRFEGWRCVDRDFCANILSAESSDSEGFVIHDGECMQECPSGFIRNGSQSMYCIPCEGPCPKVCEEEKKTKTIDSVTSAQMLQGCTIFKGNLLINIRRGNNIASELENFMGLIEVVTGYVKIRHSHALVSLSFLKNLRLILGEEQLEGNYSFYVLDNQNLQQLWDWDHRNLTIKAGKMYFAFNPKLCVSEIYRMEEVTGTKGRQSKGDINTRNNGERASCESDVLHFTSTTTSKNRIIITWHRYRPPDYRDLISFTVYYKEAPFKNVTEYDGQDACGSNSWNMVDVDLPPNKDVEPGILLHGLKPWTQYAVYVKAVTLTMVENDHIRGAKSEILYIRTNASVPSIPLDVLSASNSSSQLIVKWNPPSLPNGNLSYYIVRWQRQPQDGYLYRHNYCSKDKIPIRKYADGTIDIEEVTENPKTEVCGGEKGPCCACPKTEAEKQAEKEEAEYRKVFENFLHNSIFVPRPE
Sequence of Insulin-like growth factor 1 receptor (Homo sapiens) (P08069 741-1367 limits assumed): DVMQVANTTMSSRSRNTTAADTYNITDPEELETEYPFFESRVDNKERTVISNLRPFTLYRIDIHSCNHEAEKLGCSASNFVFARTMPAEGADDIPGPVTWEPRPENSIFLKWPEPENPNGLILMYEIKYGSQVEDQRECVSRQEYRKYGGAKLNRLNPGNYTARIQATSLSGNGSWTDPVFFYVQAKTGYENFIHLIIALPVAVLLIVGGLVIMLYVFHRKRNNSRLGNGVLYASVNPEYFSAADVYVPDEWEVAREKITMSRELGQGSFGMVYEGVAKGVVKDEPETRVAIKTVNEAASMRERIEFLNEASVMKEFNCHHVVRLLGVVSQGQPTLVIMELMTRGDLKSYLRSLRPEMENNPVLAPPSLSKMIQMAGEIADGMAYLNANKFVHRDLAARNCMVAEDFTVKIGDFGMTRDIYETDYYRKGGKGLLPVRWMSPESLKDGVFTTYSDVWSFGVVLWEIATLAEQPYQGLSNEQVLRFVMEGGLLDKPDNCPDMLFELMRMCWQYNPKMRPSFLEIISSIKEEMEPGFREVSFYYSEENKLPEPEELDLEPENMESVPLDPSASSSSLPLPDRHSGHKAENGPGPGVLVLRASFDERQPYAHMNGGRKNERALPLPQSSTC
Sequence of Tyrosine-protein kinase Lck (Homo sapiens) (P06239 2-509 limits assumed): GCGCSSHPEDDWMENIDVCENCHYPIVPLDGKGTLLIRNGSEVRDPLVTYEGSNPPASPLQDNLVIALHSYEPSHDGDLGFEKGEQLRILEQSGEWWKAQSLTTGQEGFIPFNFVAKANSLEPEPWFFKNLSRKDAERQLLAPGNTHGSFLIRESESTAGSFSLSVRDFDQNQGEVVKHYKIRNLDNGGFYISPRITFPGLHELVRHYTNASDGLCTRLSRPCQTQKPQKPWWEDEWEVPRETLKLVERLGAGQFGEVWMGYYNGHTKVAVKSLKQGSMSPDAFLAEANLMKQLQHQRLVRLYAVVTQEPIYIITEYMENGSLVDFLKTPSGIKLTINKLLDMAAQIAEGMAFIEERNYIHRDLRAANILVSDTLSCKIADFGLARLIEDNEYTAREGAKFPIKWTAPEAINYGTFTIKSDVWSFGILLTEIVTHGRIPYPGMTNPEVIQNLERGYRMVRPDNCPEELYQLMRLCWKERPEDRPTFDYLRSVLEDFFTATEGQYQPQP
Sequence of Mitogen-activated protein kinase 1 (Homo sapiens) (P28482 whole entry): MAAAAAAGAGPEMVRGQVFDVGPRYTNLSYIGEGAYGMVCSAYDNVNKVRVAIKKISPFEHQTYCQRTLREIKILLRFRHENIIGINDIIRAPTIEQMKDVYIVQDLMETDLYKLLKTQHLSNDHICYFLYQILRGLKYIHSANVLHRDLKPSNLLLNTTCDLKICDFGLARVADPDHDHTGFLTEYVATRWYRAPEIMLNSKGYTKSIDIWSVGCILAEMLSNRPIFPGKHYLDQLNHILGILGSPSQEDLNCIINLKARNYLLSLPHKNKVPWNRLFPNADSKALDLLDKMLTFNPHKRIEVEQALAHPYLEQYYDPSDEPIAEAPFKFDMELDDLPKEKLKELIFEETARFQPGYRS
Sequence of Mitogen-activated protein kinase 14 (Homo sapiens) (Q16539 whole entry): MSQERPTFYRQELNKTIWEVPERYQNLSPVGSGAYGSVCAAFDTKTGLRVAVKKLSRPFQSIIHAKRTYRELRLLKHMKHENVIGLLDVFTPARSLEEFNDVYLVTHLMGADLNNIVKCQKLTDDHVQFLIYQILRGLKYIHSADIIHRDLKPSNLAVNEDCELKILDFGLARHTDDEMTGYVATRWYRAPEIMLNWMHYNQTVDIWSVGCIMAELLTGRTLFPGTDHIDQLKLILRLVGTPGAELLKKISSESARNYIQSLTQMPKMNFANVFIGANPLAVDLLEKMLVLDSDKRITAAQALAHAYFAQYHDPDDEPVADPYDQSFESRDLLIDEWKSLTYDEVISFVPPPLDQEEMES
Sequence of Signal transducer and activator of transcription 3 (Homo sapiens) (P40763 whole entry): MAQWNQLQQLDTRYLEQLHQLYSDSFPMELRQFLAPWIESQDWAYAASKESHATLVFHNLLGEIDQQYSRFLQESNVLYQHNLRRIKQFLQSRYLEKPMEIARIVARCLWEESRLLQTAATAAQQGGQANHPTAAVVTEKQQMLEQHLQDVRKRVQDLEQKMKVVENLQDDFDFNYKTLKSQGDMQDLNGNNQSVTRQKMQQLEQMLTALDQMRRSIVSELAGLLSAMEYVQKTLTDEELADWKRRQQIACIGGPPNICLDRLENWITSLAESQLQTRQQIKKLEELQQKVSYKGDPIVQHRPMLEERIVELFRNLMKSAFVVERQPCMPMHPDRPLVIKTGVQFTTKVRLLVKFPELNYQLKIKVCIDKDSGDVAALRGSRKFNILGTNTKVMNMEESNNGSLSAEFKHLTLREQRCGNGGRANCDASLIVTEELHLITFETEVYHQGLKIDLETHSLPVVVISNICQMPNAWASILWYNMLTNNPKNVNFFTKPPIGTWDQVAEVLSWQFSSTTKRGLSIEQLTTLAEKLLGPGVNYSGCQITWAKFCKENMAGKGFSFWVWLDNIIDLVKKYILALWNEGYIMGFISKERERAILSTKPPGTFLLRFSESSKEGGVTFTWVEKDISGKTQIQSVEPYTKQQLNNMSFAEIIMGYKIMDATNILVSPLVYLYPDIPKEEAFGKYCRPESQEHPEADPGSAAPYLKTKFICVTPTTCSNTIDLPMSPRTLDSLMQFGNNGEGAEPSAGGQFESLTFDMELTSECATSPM

SMILES: Cc1ccc2nc(NCCN)c3ncc(C)n3c2c1 [BMS-345541]
- inhibition [1]: inactive
- half-life [2]: 2.2 h
- inhibition [3]: inactive
- clearance [4]: 114 mL/min/kg
- IC50 [5]: 1000 nM
- solubility [6]: Soluble
- inhibition [7]: inactive
- inhibition [8]: inactive
- IC50 [9]: 1000 nM
- inhibition [10]: inactive
- Cmax [11]: 1600 nM
- Activity [12]: 50%
- Tmax [13]: 0.52 h
- Vd [14]: 18.5 L/kg
- inhibition [15]: inactive
- inhibition [16]: inactive
- IC50 [17]: 1000 nM
- Activity [18]: Dose-Dependent Effect
- Activity [19]: Non-Toxic
- bioavailability [20]: ~100%
- inhibition [21]: inactive
- IC50 [22]: 1000 nM
- inhibition [23]: inactive
- inhibition [24]: inactive
- inhibition [25]: inactive
- inhibition [26]: inactive
- inhibition [27]: inactive
- inhibition [28]: inactive
- inhibition [29]: inactive
- Activity [30]: 100%
